Results on seven compounds are retold here after ChEMBL document CHEMBL3400021, “Systematic synthesis and anti-inflammatory activity of ω-carboxylated menaquinone derivatives--Investigations on identified and putative vitamin K₂ metabolites” (Bioorg Med Chem, 2015).

Series [1] has as its system RAW264.7. The series is described as follows: Cytotoxicity against mouse RAW264.7 cells. Format: cell-based.
Series [2] concerns RAW264.7. Briefly: Antiinflammatory activity in mouse RAW264.7 cells assessed as inhibition of LPS-induced TNF-alpha level at 10 uM incubated for 24 hrs prior to LPS challenge measured after 3 hrs by qRT-PCR analysis relative to control. The class given is functional. A general note: In qPCR the cycle at which signal appears reflects the starting amount.
In series [3] the test system is RAW264.7. Briefly: Antiinflammatory activity in mouse RAW264.7 cells assessed as inhibition of LPS-induced IL-6 level at 10 uM incubated for 24 hrs prior to LPS challenge measured after 3 hrs by qRT-PCR analysis relative to control. Format: functional.
Series [4] deals with RAW264.7. The series is described as follows: Antiinflammatory activity in mouse RAW264.7 cells assessed as inhibition of LPS-induced IL-1beta level at 10 uM incubated for 24 hrs prior to LPS challenge measured after 3 hrs by qRT-PCR analysis relative to control. Format: functional.
Series [5] has as its system RAW264.7. The series is described as follows: Antiinflammatory activity in mouse RAW264.7 cells assessed as inhibition of LPS-induced TNF-alpha level at 5 uM incubated for 24 hrs prior to LPS challenge measured after 3 hrs by qRT-PCR analysis relative to control. The class given is functional.
The test system of series [6] is RAW264.7. The series is described as follows: Antiinflammatory activity in mouse RAW264.7 cells assessed as inhibition of LPS-induced IL-6 level at 5 uM incubated for 24 hrs prior to LPS challenge measured after 3 hrs by qRT-PCR analysis relative to control. The class given is functional.
For series [7], the system named is RAW264.7. Briefly: Antiinflammatory activity in mouse RAW264.7 cells assessed as inhibition of LPS-induced IL-1beta level at 5 uM incubated for 24 hrs prior to LPS challenge measured after 3 hrs by qRT-PCR analysis relative to control. Format: functional.
The subject of series [8] is RAW264.7. The series is described as follows: Antiinflammatory activity in mouse RAW264.7 cells assessed as inhibition of LPS-induced TNF-alpha level at 1 uM incubated for 24 hrs prior to LPS challenge measured after 3 hrs by qRT-PCR analysis relative to control. Format: functional.
Series [9] relates to RAW264.7. Briefly: Antiinflammatory activity in mouse RAW264.7 cells assessed as inhibition of LPS-induced IL-1beta level at 1 uM incubated for 24 hrs prior to LPS challenge measured after 3 hrs by qRT-PCR analysis relative to control. Format: functional.
In series [10] the test system is RAW264.7. Briefly: Antiinflammatory activity in mouse RAW264.7 cells assessed as inhibition of LPS-induced IL-6 level at 1 uM incubated for 24 hrs prior to LPS challenge measured after 3 hrs by qRT-PCR analysis relative to control. The class given is functional.

`CC1=C(C/C=C(\C)CC/C=C(\C)CC/C=C(\C)CCC(=O)O)C(=O)c2ccccc2C1=O`: the Activity entry in the series on RAW264.7 [1] was “Non-toxic”. In addition, the figures for the inhibition at 10 µM with RAW264.7 [2], in the series with RAW264.7 [3] and with RAW264.7 [4] were 2.2%, 10.6% and 21.3%, respectively.

Take `CC1=C(C/C=C(\C)CC/C=C(\C)CC/C=C(\C)C(=O)O)C(=O)c2ccccc2C1=O`: the Activity entry in the series on RAW264.7 [1] is on record as “Non-toxic”. Also, the inhibition (usually the drop in the measured response relative to a control, in per cent) at 10 µM is 24.4% in the series on RAW264.7 [2], 46.3% with RAW264.7 [3] and 37% with RAW264.7 [4].

With `CC1=C(C/C=C(\C)CC/C=C(\C)CCC(=O)O)C(=O)c2ccccc2C1=O`, the values for the inhibition at 5 µM in the series with RAW264.7 [5], in the series on RAW264.7 [6] and in the series on RAW264.7 [7] were 26.3%, 52.1% and 51.5%, respectively. Moreover, the Activity entry in the series on RAW264.7 [1] was “Non-toxic”.

Consider `CC1=C(C/C=C(\C)CC/C=C(\C)C(=O)O)C(=O)c2ccccc2C1=O`, for which the Activity entry in the series on RAW264.7 [1] is given as “Non-toxic”. Moreover, the inhibition at 1 µM with RAW264.7 [8] is 7.7%; in the series with RAW264.7 [9], 43.5%; in the series on RAW264.7 [10] it was 47.7%.

Turning to `CC1=C(C/C=C(\C)CCC(=O)O)C(=O)c2ccccc2C1=O`, the inhibition at 5 µM stood at 25.2% in the series with RAW264.7 [5], 29.8% with RAW264.7 [6] and 28.3% with RAW264.7 [7]. Moreover, the Activity entry with RAW264.7 [1] was “Non-toxic”.

For the compound `CC1=C(C/C=C(\C)C(=O)O)C(=O)c2ccccc2C1=O`, in the series with RAW264.7 [1], the Activity entry was “Non-toxic”. Moreover, the values for the inhibition at 10 µM in the series with RAW264.7 [2], in the series with RAW264.7 [3] and in the series with RAW264.7 [4] were 20.8%, 34.4% and 40.6%, respectively.

In the case of `CC1=C(CCC(C)C(=O)O)C(=O)c2ccccc2C1=O` (stereo not drawn), in the series on RAW264.7 [1], the Activity result is on record as “Non-toxic”. The inhibition at 1 µM was determined as 17.3% in the series with RAW264.7 [8], 23.1% in the series on RAW264.7 [9] and 20.6% in the series on RAW264.7 [10].
